From the supplement of paper PMC10307832

How the values were obtained:
Assay in all cases: relative viability (nuclei count vs DMSO), 5 days (fraction); higher = more cells survive
Bleomycin + Palbociclib = compound: CC1=C(N=C(N=C1N)[C@H](CC(=O)N)NC[C@@H](C(=O)N)N)C(=O)N[C@@H]([C@H](C2=CN=CN2)OC3C(C(C(C(O3)CO)O)O)OC4C(C(C(C(O4)CO)O)OC(=O)N)O)C(=O)N[C@H](C)[C@H]([C@H](C)C(=O)N[C@@H]([C@@H](C)O)C(=O)NCCC5=NC(=CS5)C6=NC(=CS6)C(=O)NCCC[S+](C)C)O [Bleomycin] + CC(=O)c1c(C)c2cnc(Nc3ccc(N4CCNCC4)cn3)nc2n(C2CCCC2)c1=O [Palbociclib] (partner 0.5 µM); details: main component drawn
Outline: (§1)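 Relative viability divides the nuclei count in treated wells by that in vehicle wells. Lung cancer cell lines were seeded in 1536-well plates, dosed by pin tool the next day, and fixed and stained after 5 days in one step with final 0.05% Triton X-100, 1% formaldehyde and 1 ug/ml Hoechst. Dosing was a single drug or a fixed anchor-drug dose plus five library-drug doses (not always all listed) in √10 steps, and values are medians of duplicate plates imaged at 4×.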

Bleomycin + Crizotinib = compound: CC1=C(N=C(N=C1N)[C@H](CC(=O)N)NC[C@@H](C(=O)N)N)C(=O)N[C@@H]([C@H](C2=CN=CN2)OC3C(C(C(C(O3)CO)O)O)OC4C(C(C(C(O4)CO)O)OC(=O)N)O)C(=O)N[C@H](C)[C@H]([C@H](C)C(=O)N[C@@H]([C@@H](C)O)C(=O)NCCC5=NC(=CS5)C6=NC(=CS6)C(=O)NCCC[S+](C)C)O [Bleomycin] + C[C@@H](Oc1cc(-c2cnn(C3CCNCC3)c2)cnc1N)c1c(Cl)ccc(F)c1Cl [Crizotinib] (partner 1 µM); details: main component drawn
Outline: as §1

Etoposide + Bortezomib = compound: COc1cc([C@@H]2c3cc4c(cc3[C@@H](O[C@@H]3O[C@@H]5CO[C@@H](C)O[C@H]5[C@H](O)[C@H]3O)[C@H]3COC(=O)[C@H]23)OCO4)cc(OC)c1O [Etoposide] + CC(C)C[C@H](NC(=O)[C@H](Cc1ccccc1)NC(=O)c1cnccn1)B(O)O [Bortezomib] (partner 0.002 µM)
Outline: as §1

Etoposide + Vorinostat = compound: COc1cc([C@@H]2c3cc4c(cc3[C@@H](O[C@@H]3O[C@@H]5CO[C@@H](C)O[C@H]5[C@H](O)[C@H]3O)[C@H]3COC(=O)[C@H]23)OCO4)cc(OC)c1O [Etoposide] + O=C(CCCCCCC(=O)Nc1ccccc1)NO [Vorinostat] (partner 1 µM)
Outline: as §1

| Cell Line | relative viability (Bleomycin + Palbociclib; first compound 0.01 µM) | relative viability (Bleomycin + Palbociclib; first compound 0.03162 µM) | relative viability (Bleomycin + Palbociclib; first compound 0.1 µM) | relative viability (Bleomycin + Palbociclib; first compound 0.3162 µM) | relative viability (Bleomycin + Palbociclib; first compound 1 µM) | relative viability (Bleomycin + Crizotinib; first compound 0.01 µM) | relative viability (Bleomycin + Crizotinib; first compound 0.03162 µM) | relative viability (Bleomycin + Crizotinib; first compound 0.1 µM) | relative viability (Bleomycin + Crizotinib; first compound 0.3162 µM) | relative viability (Bleomycin + Crizotinib; first compound 1 µM) | relative viability (Etoposide + Bortezomib; first compound 0.01 µM) | relative viability (Etoposide + Bortezomib; first compound 0.03162 µM) | relative viability (Etoposide + Bortezomib; first compound 0.1 µM) | relative viability (Etoposide + Bortezomib; first compound 0.3162 µM) | relative viability (Etoposide + Bortezomib; first compound 1 µM) | relative viability (Etoposide + Vorinostat; first compound 0.01 µM) | relative viability (Etoposide + Vorinostat; first compound 0.03162 µM) | relative viability (Etoposide + Vorinostat; first compound 0.1 µM) | relative viability (Etoposide + Vorinostat; first compound 0.3162 µM) | relative viability (Etoposide + Vorinostat; first compound 1 µM) |
| --- | --- | --- | --- | --- | --- | --- | --- | --- | --- | --- | --- | --- | --- | --- | --- | --- | --- | --- | --- | --- |
| 201T | 0.397 | 0.32 | 0.384 | 0.311 | 0.336 | 0.997 | 0.947 | 0.902 | 0.843 | 0.784 | 1.04 | 1.1 | 1.01 | 1.04 | 0.765 | 0.905 | 1.03 | 0.811 | 0.887 | 0.485 |
| A549 | – | – | – | – | – | 0.601 | 0.562 | 0.339 | 0.0813 | 0.0619 | – | – | – | – | – | – | – | – | – | – |
| A-427 | 0.458 | 0.453 | 0.447 | 0.276 | 0.256 | 0.738 | 0.776 | 0.67 | 0.402 | 0.223 | 0.92 | 1.02 | 0.726 | 0.819 | 0.244 | 0.864 | 0.864 | 0.761 | 0.625 | 0.309 |
| ABC-1 | 0.467 | 0.822 | 0.789 | 0.512 | 0.433 | 0.799 | 0.769 | 0.659 | 0.191 | 0.161 | 0.301 | 0.33 | 0.261 | 0.296 | 0.237 | 1.07 | 1.57 | 0.571 | 0.55 | 0.223 |
| BEN | 0.482 | 0.473 | 0.452 | 0.444 | 0.408 | 0.769 | 0.829 | 0.94 | 0.671 | 0.742 | 0.728 | 0.869 | – | 0.565 | 0.6 | 0.542 | 0.722 | – | 0.559 | 0.616 |
| CAL-12T | 0.309 | 0.365 | 0.232 | 0.116 | 0.192 | 0.356 | 0.405 | 0.25 | 0.15 | 0.192 | 1.07 | 1.08 | 0.846 | 0.648 | 0.385 | 0.798 | 0.782 | 0.724 | 0.403 | 0.213 |
| COR-L23 | 0.184 | 0.237 | 0.151 | 0.115 | 0.0887 | 0.444 | 0.317 | 0.226 | 0.0998 | 0.099 | 0.962 | 0.937 | 0.804 | 0.693 | 0.342 | 0.48 | 0.487 | 0.352 | 0.214 | 0.13 |
| COR-L 105 | 0.389 | 0.37 | 0.435 | 0.392 | 0.395 | 0.587 | 0.875 | 0.52 | 0.368 | 0.364 | 0.613 | 1.23 | 0.502 | 0.7 | 0.495 | 1.09 | 0.856 | 0.731 | 0.727 | 0.734 |
| Calu-6 | – | – | – | – | – | 0.514 | 0.394 | 0.379 | 0.141 | 0.181 | 1.06 | 0.973 | 1.03 | 0.693 | 0.405 | – | – | – | – | – |
| ChaGo-K-1 | 0.847 | 0.831 | 0.862 | 0.512 | 0.386 | – | 0.999 | 0.754 | 0.385 | 0.333 | 1.16 | 0.94 | 0.679 | 0.337 | 0.282 | 0.756 | 0.736 | 0.413 | 0.353 | 0.197 |
| EBC-1 | – | – | – | – | – | 0.204 | 0.193 | 0.2 | 0.198 | 0.151 | 0.528 | 0.503 | 0.55 | 0.581 | 0.379 | – | – | – | – | – |
| EKVX | 0.366 | 0.366 | 0.299 | 0.209 | 0.189 | 0.87 | 0.803 | 0.7 | 0.448 | 0.316 | 1 | 1.18 | 0.4 | 0.419 | 0.372 | 0.543 | 0.746 | 0.512 | 0.444 | 0.253 |
| EMC-BAC-2 | 0.378 | 0.433 | 0.414 | 0.333 | 0.293 | 0.628 | 0.626 | 0.738 | 0.318 | 0.241 | 1.07 | 1.03 | 0.729 | 0.452 | 0.196 | 0.636 | 0.428 | 0.239 | 0.153 | 0.139 |
| EPLC-272H | 0.329 | 0.311 | 0.311 | 0.213 | 0.218 | 0.776 | 0.88 | 0.655 | 0.358 | 0.152 | 0.89 | 1.15 | 0.669 | 0.958 | 0.526 | 0.415 | 0.464 | 0.426 | 0.267 | 0.235 |
| H3255 | 0.324 | 0.324 | 0.283 | 0.312 | 0.279 | 0.61 | 0.742 | 0.55 | 0.378 | 0.287 | 0.831 | 0.777 | 0.516 | 0.591 | 0.383 | 0.788 | 0.774 | 0.458 | 0.278 | 0.314 |
